In PubChem BioAssay (NCI):
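Dose response: 5 concentrations. Exposure: 48 h. Format: 96-well plates. Endpoint: linear interpolation; highest concentration if not reached. The concentration for 50% growth inhibition is given as GI50. At the TGI there is no net growth.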

Experiments:
Assay in all cases: DTP human tumour cell line panel, 48 h
[1] = tested on: 786-0 renal
[2] = tested on: HL-60(TB) leukemia
[3] = tested on: HOP-62 NSCLC
[4] = tested on: HOP-92 NSCLC
[5] = tested on: KM12 colon
[6] = tested on: MALME-3M melanoma
[7] = tested on: NCI/ADR-RES ovarian
[8] = tested on: SF-539 CNS
[9] = tested on: SNB-19 CNS
[10] = tested on: SW-620 colon

| Compound | GI50 [1] | TGI [1] | GI50 [2] | TGI [2] | GI50 [3] | TGI [3] | GI50 [4] | TGI [4] | GI50 [5] | TGI [5] | GI50 [6] | TGI [6] | GI50 [7] | TGI [7] | GI50 [8] | TGI [8] | GI50 [9] | TGI [9] | GI50 [10] | TGI [10] |
| --- | --- | --- | --- | --- | --- | --- | --- | --- | --- | --- | --- | --- | --- | --- | --- | --- | --- | --- | --- | --- |
| CN1CCN(Cc2ccc(NC(=O)c3cncc(C#Cc4cncc5[nH]ncc45)c3)cc2C(F)(F)F)CC1 | 1800 nM | 6.35 µM | 249 nM | 1.38 µM | 882 nM | 4.86 µM | 156 nM | 1.26 µM | 20.9 nM | 2.65 µM | 98.7 nM | 0.383 µM | 4090 nM | 11.3 µM | 411 nM | 1.28 µM | 3.81 µM | 9.93 µM | 611 nM | 3.64 µM |
| CCN(Cc1cccc(C)c1)c1ccc(CO)c(Cl)c1 | 10800 nM | 23.5 µM | 14100 nM | 41.1 µM | 2550 nM | 22 µM | 2160 nM | 13.5 µM | 13900 nM | 27.8 µM | 15700 nM | 33.4 µM | 11300 nM | 24.5 µM | 17300 nM | 32.4 µM | 15.8 µM | 41 µM | 2330 nM | 18 µM |
| Cn1cc(C2=C(c3cn(C)c4cc(Cl)ccc34)C(=O)NC2=O)c2ccccc21 | 203 nM | > 20.8 µM | 81.4 nM | 0.241 µM | 124 nM | > 25 µM | 146 nM | > 23 µM | 106 nM | 4.35 µM | 87.8 nM | 6.99 µM | 76.1 nM |  | 55.6 nM | 0.141 µM | 0.145 µM | > 25 µM | 100 nM | > 25 µM |
| O=[N+]([O-])C1(CO)COC2(OC1)c1ccccc1-c1ccccc12 |  | > 74.8 µM |  | 58.5 µM |  | > 100 µM |  | > 95.7 µM |  | > 100 µM |  | 73.9 µM |  | > 72.9 µM |  | > 85.6 µM |  | > 100 µM |  | 44.5 µM |
| COc1cc(C2CC(c3cc(Cl)c(C)cc3O)=NN2c2ccc(S(N)(=O)=O)cc2)cc(OC)c1OC (stereo not given) | 2210 nM | 4.29 µM | 2950 nM | 14.8 µM | 2100 nM | 4.56 µM | 2140 nM | 6.99 µM | 2280 nM | 5.1 µM | 2080 nM | 4.89 µM | 2580 nM | 7.53 µM | 1770 nM | 3.37 µM | 4.61 µM | 23.9 µM | 3350 nM | 10.7 µM |
| CCN(CC)c1ccc(/C=C2/NC(=O)NC2=O)cc1 | 10900 nM | > 100 µM | 4900 nM | > 100 µM | 10000 nM | > 100 µM | 9010 nM | > 93.1 µM | 1650 nM | > 24.2 µM | 16000 nM | > 100 µM | 1930 nM | 12.2 µM | 5570 nM | 53.6 µM | 15.5 µM | > 100 µM | 3470 nM | > 100 µM |
| CCN1CCN(c2nc(NNC(=O)c3cccc(OC)c3)nc(N3CCN(C(c4ccccc4)c4ccccc4)CC3)n2)CC1 | 1840 nM | 3.58 µM |  |  | 5760 nM | 23.5 µM | 1290 nM | 3.33 µM | 2280 nM | 5.48 µM | 1520 nM | 2.94 µM | 2420 nM | 7.12 µM | 1650 nM | 3 µM | 4.63 µM | 26.3 µM | 1750 nM | 3.45 µM |
| COC(=O)[C@@H](C)C[C@H](Cc1ccccc1)NC(=O)c1csc([C@@H](C[C@H](C(C)C)N(C)C(=O)[C@@H](NC(=O)CN(C)C)C2CC2)OC(C)=O)n1 | 38.2 nM | > 16.5 µM | 2.72 nM | 0.0106 µM | 58.5 nM | > 16.5 µM |  |  | 21.5 nM | > 10.5 µM | 36.5 nM | > 16.5 µM | 13400 nM | > 16.5 µM | 22 nM | 0.0925 µM | 0.0862 µM | > 16.5 µM | 13.7 nM | > 16.5 µM |
| Nc1ccc(Sc2ccc3c4c2cccc4c(=O)n2c4ccccc4nc32)cc1 | 3340 nM | 10.4 µM | 3710 nM | 12 µM | 4340 nM | 17.2 µM |  |  | 6630 nM | 58.6 µM | 3120 nM | 16.9 µM | 5950 nM | 62.8 µM | 3110 nM | 15.6 µM | 6.17 µM | > 100 µM | 5160 nM | > 100 µM |
| N#CSc1cc(-c2nc3ccccc3o2)ccc1N | 33400 nM | 97.4 µM | 195 nM | 0.552 µM | 52700 nM | > 100 µM | 22400 nM | 64.2 µM | 6540 nM | 27.1 µM |  |  | 22200 nM | 87.5 µM | 22400 nM | 45.3 µM | 59.7 µM | > 100 µM | 25700 nM | > 86.2 µM |
| CCN(CC)Cc1cc(Nc2c3ccc(Cl)cc3nc3c(C)cccc23)ccc1O | 1370 nM | 2.67 µM | 2420 nM | 5.24 µM | 1650 nM | 3.26 µM |  |  | 1590 nM | 3.46 µM | 1650 nM | 3.13 µM | 1080 nM | 3.02 µM | 1730 nM | 3.12 µM | 1.45 µM | 3.29 µM | 1060 nM | 2.53 µM |
| COc1ccc(C(=O)C(CN(C)C)c2ccccc2)cc1 (stereo not given) | 1620 nM | 3.01 µM | 5540 nM | > 100 µM | 10900 nM | 23.6 µM |  |  | 3980 nM | 13.6 µM | 3300 nM | 13.6 µM | 2700 nM | 6.97 µM | 5070 nM | 16.6 µM | 11.1 µM | 23.1 µM | 496 nM | 1.57 µM |
| Clc1ccc2c(NCCNc3nc(Cl)nc4ccccc34)ccnc2c1 | 1080 nM | 2.46 µM | 231 nM | 0.656 µM | 560 nM | 2.09 µM | 1740 nM | 3.4 µM | 1610 nM | 3.17 µM | 1760 nM | 3.47 µM | 2500 nM | 7.24 µM | 1600 nM | 3.12 µM |  |  | 271 nM | 0.636 µM |
